Patent US9505786B2, “Substituted annulated triazines and use thereof” (BAYER INTELLECTUAL PROPERTY GMBH, priority 2012, dated 2016)

Assays:
[1] = tested on: recombinant guanylate cyclase reporter cell line; experiment: Effect on a recombinant guanylate cyclase reporter cell line; assay type: cell-based
Protocol: B-2. Effect on a Recombinant Guanylate Cyclase Reporter Cell Line
The cellular activity of the compounds according to the invention is determined using a recombinant guanylate cyclase reporter cell line, as described in F. Wunder et al., Anal. Biochem. 339, 104-112 (2005).

[2] = target: human phosphodiesterase 5 (PDE 5) (Homo sapiens (Human), UniProt O76074); experiment: Inhibition of human phosphodiesterase 5 (PDE 5), SPA assay; assay type: biochemical; settings: PDE 5 preparation from human platelets, [8-3H] cGMP substrate
Protocol: B-6. Inhibition of Human Phosphodiesterase 5 (PDE 5)
PDE 5 preparations are obtained from human platelets by disruption (Microfluidizer®, 800 bar, 3 passes), followed by centrifugation (75 000 g, 60 min, 4° C.) and ion exchange chromatography of the supernatant on a Mono Q 10/10 column (linear sodium chloride gradient, elution with a 0.2-0.3M solution of sodium chloride in buffer (20 mM Hepes pH 7.2, 2 mM magnesium chloride). Fractions having PDE 5 activity are combined (PDE 5 preparation) and stored at −80° C.
To determine their in vitro action on human PDE 5, the test substances are dissolved in 100% DMSO and serially diluted. Typically, dilution series (1:3) from 200 μM to 0.091 μM are prepared (resulting final concentrations in the test: 4 μM to 0.0018 μM). In each case 2 μl of the diluted substance solutions are placed into the wells of microtitre plates (Isoplate-96/200W; Perkin Elmer). Subsequently, 50 μl of a dilution of the above-described PDE 5 preparation are added. The dilution of the PDE 5 preparation is chosen such that during the later incubation less than 70% of the substrate are converted (typical dilution: 1:100; dilution buffer: 50 mM Tris/hydrochloric acid pH 7.5, 8.3 mM magnesium chloride, 1.7 mM EDTA, 0.2% BSA). The substrate, [8-^3H] cyclic guanosine-3′,5′-monophosphate (1 μCi/μl; Perkin Elmer) is diluted 1:2000 with assay buffer (50 mM tris/hydrochloric acid pH 7.5, 8.3 mM magnesium chloride, 1.7 mM EDTA) to a concentration of 0.0005 μCi/μl. By addition of 50 μl (0.025 μCi) of the diluted substrate, the enzyme reaction is finally started. The test mixtures are incubated at room temperature for 60 min and the reaction is stopped by adding 25 μl of a suspension of 18 mg/ml yttrium scintillation proximity beads in water (phosphodiesterase beads for SPA assays, RPNQ 0150, Perkin Elmer). The microtitre plates are sealed with a film and left to stand at room temperature for 60 min. Subsequently, the plates are analysed for 30 s per well in a Microbeta scintillation counter (Perkin Elmer). IC50 values are determined using the graphic plot of the substance concentration against percentage PDE 5 inhibition.

| IC50 [2] [nM] | SMILES | MEC (minimum effective concentration) [1] [nM] |
| --- | --- | --- |
|  | CC1(CC2CC2)C(=O)Nc2nc(-c3nn(Cc4ccccc4F)c4ncc(F)cc34)nnc21 (racemic) [Example 5-1, 7-(Cyclopropylmethyl)-3-[5-fluoro-1-(2-fluorobenzyl)-1H-pyrazolo[3,4-b]pyridin-3-yl]-7-methyl-5,7-dihydro-6H-pyrrolo[2,3-e][1,2,4]triazin-6-one] | 100 |
|  | CC1(CC2CC2)C(=O)Nc2nc(-c3nn(Cc4ccccc4F)c4ncc(F)cc34)nnc21 (racemic) [Example 5-2, 7-(Cyclopropylmethyl)-3-[5-fluoro-1-(2-fluorobenzyl)-1H-pyrazolo[3,4-b]pyridin-3-yl]-7-methyl-5,7-dihydro-6H-pyrrolo[2,3-e][1,2,4]triazin-6-one] | 300 |
|  | CCC1(C)C(=O)Nc2nc(-c3nn(Cc4ccccc4F)c4ncc(F)cc34)nnc21 (racemic) [Example 7-1, 7-Ethyl-3-[5-fluoro-1-(2-fluorobenzyl)-1H-pyrazolo[3,4-b]pyridin-3-yl]-7-methyl-5,7-dihydro-6H-pyrrolo[2,3-e][1,2,4]triazin-6-one] | 100 |
|  | CCC1(C)C(=O)Nc2nc(-c3nn(Cc4ccccc4F)c4ncc(F)cc34)nnc21 (racemic) [Example 7-2, 7-Ethyl-3-[5-fluoro-1-(2-fluorobenzyl)-1H-pyrazolo[3,4-b]pyridin-3-yl]-7-methyl-5,7-dihydro-6H-pyrrolo[2,3-e][1,2,4]triazin-6-one] | 100 |
| 140 | C=CCCC1(C)C(=O)Nc2nc(-c3nn(Cc4ccccc4F)c4ncccc34)nnc21 (racemic) [Example 23, (rac) (7S)-7-(But-3-en-1-yl)-3-[1-(2-fluorobenzyl)-1H-pyrazolo[3,4-b]pyridin-3-yl]-7-methyl-5,7-dihydro-6H-pyrrolo[2,3-e][1,2,4]triazin-6-one] | 30 |
| 1500 | CCOC(=O)C1C(=O)Nc2nc(-c3nn(Cc4ccccc4F)c4ncccc34)nnc21 (racemic) [Example 25, (rac) Ethyl 3-[1-(2-fluorobenzyl)-1H-pyrazolo[3,4-b]pyridin-3-yl]-6-oxo-6,7-dihydro-5H-pyrrolo[2,3-e][1,2,4]triazine-7-carboxylate] | 100 |
| 3400 | CC1(CC(=O)O)C(=O)Nc2nc(-c3nn(Cc4ccccc4F)c4ncccc34)nnc21 (racemic) [Example 26, (rac) {3-[1-(2-Fluorobenzyl)-1H-pyrazolo[3,4-b]pyridin-3-yl]-7-methyl-6-oxo-6,7-dihydro-5H-pyrrolo[2,3-e][1,2,4]triazin-7-yl}acetic acid] | 300 |
| 870 | CCOC(=O)C1(C)C(=O)Nc2nc(-c3nn(Cc4ccccc4F)c4ncccc34)ncc21 (racemic) [Example 33, (rac) Ethyl 2-[1-(2-fluorobenzyl)-1H-pyrazolo[3,4-b]pyridin-3-yl]-5-methyl-6-oxo-6,7-dihydro-5H-pyrrolo[2,3-d]pyrimidine-5-carboxylate] | 10 |
| 4000 | CC1(C(=O)NC2CC2)C(=O)Nc2nc(-c3nn(CCC(F)(F)F)c4ncccc34)ncc21 (racemic) [Example 49, (rac) N-Cyclopropyl-5-methyl-6-oxo-2-[1-(3,3,3-trifluoropropyl)-1H-pyrazolo[3,4-b]pyridin-3-yl]-6,7-dihydro-5H-pyrrolo[2,3-d]pyrimidine-5-carboxamide] | 300 |
| 3900 | CC1(CC(=O)O)C(=O)Nc2nc(-c3nn(Cc4ccccc4F)c4ncc(F)cc34)nnc21 (racemic) [Example 52, (rac){3-[5-Fluoro-1-(2-fluorobenzyl)-1H-pyrazolo[3,4-b]pyridin-3-yl]-7-methyl-6-oxo-6,7-dihydro-5H-pyrrolo[2,3-e][1,2,4]triazin-7-yl}acetic acid] | 1000 |
| 490 | CCOC(=O)C1(C)CC(=O)Nc2nc(-c3nn(Cc4ccccc4F)c4ncccc34)nnc21 (centres unmarked) [Example 2, Ethyl 3-[1-(2-fluorobenzyl)-1H-pyrazolo[3,4-b]pyridin-3-yl]-8-methyl-6-oxo-5,6,7,8-tetrahydropyrido[2,3-e][1,2,4]triazine-8-carboxylate] | 300 |
| 150 | COc1ccc(Cn2nc(-c3nnc4c(n3)NC(=O)C4(C)C)c3cc(F)cnc32)cc1 [Example 8, 3-[5-Fluoro-1-(4-methoxybenzyl)-1H-pyrazolo[3,4-b]pyridin-3-yl]-7,7-dimethyl-5,7-dihydro-6H-pyrrolo[2,3-e][1,2,4]triazin-6-one] | 3000 |
| 38 | CC1(C)C(=O)Nc2nc(-c3nn(Cc4ccccc4F)c4nc(C(F)(F)F)ccc34)nnc21 [Example 19, 3-[1-(2-Fluorobenzyl)-6-(trifluoromethyl)-1H-pyrazolo[3,4-b]pyridin-3-yl]-7,7-dimethyl-5,7-dihydro-6H-pyrrolo[2,3-e][1,2,4]triazin-6-one] | 1000 |
| 22 | Cc1nc2c(cc1F)c(-c1nnc3c(n1)NC(=O)C3(C)C)nn2Cc1ccccc1F [Example 21, 3-[5-Fluoro-1-(2-fluorobenzyl)-6-methyl-1H-pyrazolo[3,4-b]pyridin-3-yl]-7,7-dimethyl-5,7-dihydro-6H-pyrrolo[2,3-e][1,2,4]triazin-6-one] | 30 |
|  | CC(C)(C)OC(=O)C#Cc1nc(-c2nn(Cc3ccccc3F)c3ncccc23)nc2c1C(C)(C)C(=O)N2 [Example 50, tert-Butyl 3-{2-[1-(2-fluorobenzyl)-1H-pyrazolo[3,4-b]pyridin-3-yl]-5,5-dimethyl-6-oxo-6,7-dihydro-5H-pyrrolo[2,3-d]pyrimidin-4-yl}prop-2-ynoate] | 300 |
|  | CC1(C)C(=O)Nc2nc(-c3nn(Cc4ccccc4F)c4ncc(F)cc34)nc(CNC(=O)C3CC3)c21 [Example 56, N-({2-[5-Fluoro-1-(2-fluorobenzyl)-1H-pyrazolo[3,4-b]pyridin-3-yl]-5,5-dimethyl-6-oxo-6,7-dihydro-5H-pyrrolo[2,3-d]pyrimidin-4-yl}methyl)cyclopropanecarboxamide] | 30 |
|  | CC(C)(O)CCc1nc(-c2nn(Cc3ccccc3F)c3ncccc23)nc2c1C(C)(C)C(=O)N2 [Example 59, 2-[1-(2-Fluorobenzyl)-1H-pyrazolo[3,4-b]pyridin-3-yl]-4-(3-hydroxy-3-methylbutyl)-5,5-dimethyl-5,7-dihydro-6H-pyrrolo[2,3-d]pyrimidin-6-one] | 300 |
|  | CC1(C)C(=O)Nc2nc(-c3nn(Cc4ccccc4F)c4ncccc34)nc(Cl)c21 [Example 60, 4-Chloro-2-[1-(2-fluorobenzyl)-1H-pyrazolo[3,4-b]pyridin-3-yl]-5,5-dimethyl-5,7-dihydro-6H-pyrrolo[2,3-d]pyrimidin-6-one] | 300 |
|  | CC1(C)C(=O)Nc2nc(-c3nn(Cc4ccccc4F)c4ncccc34)nc(C#CC(=O)O)c21 [Example 62, 3-{2-[1-(2-Fluorobenzyl)-1H-pyrazolo[3,4-b]pyridin-3-yl]-5,5-dimethyl-6-oxo-6,7-dihydro-5H-pyrrolo[2,3-d]pyrimidin-4-yl}prop-2-ynoic acid] | 30 |
